This passage reports Activity results from ChEMBL document CHEMBL1144839, “Cytotoxic bastadin 24 from the Australian sponge Ianthella quadrangulata” (J Nat Prod, 2008).

In the test the test system is HUVEC. In words: Antiangiogenic activity in HUVEC cells assessed as inhibition of hEGF-induced tubular formation at 1 ug/mL after 24 hrs relative to control. It counts as functional, Homo sapiens. Further details: scale not given: the % may be the effect or the level left.

In the case of `O=C1NCCc2cc(Br)c(O)c(c2)Oc2c(Br)cc(cc2Br)[C@H](O)CNC(=O)/C(=N/O)Cc2cc(Br)c(O)c(c2)Oc2ccc(cc2Br)C/C1=N\O` [BASTADIN 12], the Activity turned out to be 27.6%.
